Experimental data taken from PubChem BioAssay (NCI).
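Briefly, cells in 96-well plates were exposed to five compound concentrations for 48 h, and endpoints were estimated by linear interpolation. The concentration for full growth arrest is given as TGI.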

Assays:
Test in all cases: NCI anticancer screen, dose series, 48 h
SW-620 colon = test system: SW-620 colon
TK-10 renal = test system: TK-10 renal
ACHN renal = test system: ACHN renal
OVCAR-5 ovarian = test system: OVCAR-5 ovarian
HCC-2998 colon = test system: HCC-2998 colon
HCT-116 colon = test system: HCT-116 colon
SK-OV-3 ovarian = test system: SK-OV-3 ovarian
UO-31 renal = test system: UO-31 renal
RPMI-8226 leukemia = test system: RPMI-8226 leukemia
MDA-N = test system: MDA-N
786-0 renal = test system: 786-0 renal
NCI/ADR-RES ovarian = test system: NCI/ADR-RES ovarian
LOX IMVI melanoma = test system: LOX IMVI melanoma
NCI-H23 lung = test system: NCI-H23 lung
SN12C renal = test system: SN12C renal
SF-539 CNS = test system: SF-539 CNS
U251 CNS = test system: U251 CNS
DU-145 prostate = test system: DU-145 prostate
M14 melanoma = test system: M14 melanoma
BT-549 breast = test system: BT-549 breast
SR leukemia = test system: SR leukemia
A498 renal = test system: A498 renal
HL-60(TB) leukemia = test system: HL-60(TB) leukemia
MALME-3M melanoma = test system: MALME-3M melanoma
SNB-19 CNS = test system: SNB-19 CNS
UACC-257 melanoma = test system: UACC-257 melanoma
K-562 leukemia = test system: K-562 leukemia
HT29 colon = test system: HT29 colon
OVCAR-3 ovarian = test system: OVCAR-3 ovarian
OVCAR-8 ovarian = test system: OVCAR-8 ovarian
T-47D breast = test system: T-47D breast
COLO 205 colon = test system: COLO 205 colon
MOLT-4 leukemia = test system: MOLT-4 leukemia
HCT-15 colon = test system: HCT-15 colon
A549 NSCLC = test system: A549 NSCLC
SK-MEL-28 melanoma = test system: SK-MEL-28 melanoma
MDA-MB-231 breast = test system: MDA-MB-231 breast
CAKI-1 renal = test system: CAKI-1 renal
HOP-92 NSCLC = test system: HOP-92 NSCLC
PC-3 prostate = test system: PC-3 prostate
NCI-H226 lung = test system: NCI-H226 lung
EKVX NSCLC = test system: EKVX NSCLC
SK-MEL-2 melanoma = test system: SK-MEL-2 melanoma
HOP-62 NSCLC = test system: HOP-62 NSCLC
NCI-H522 lung = test system: NCI-H522 lung
IGROV1 ovarian = test system: IGROV1 ovarian
SK-MEL-5 melanoma = test system: SK-MEL-5 melanoma
KM12 colon = test system: KM12 colon
SF-295 CNS = test system: SF-295 CNS
MCF7 breast = test system: MCF7 breast
HS 578T breast = test system: HS 578T breast
CCRF-CEM leukemia = test system: CCRF-CEM leukemia
RXF 393 renal = test system: RXF 393 renal
SF-268 CNS = test system: SF-268 CNS
SNB-75 CNS = test system: SNB-75 CNS
MDA-MB-435 = test system: MDA-MB-435
OVCAR-4 ovarian = test system: OVCAR-4 ovarian
UACC-62 melanoma = test system: UACC-62 melanoma
NCI-H460 lung = test system: NCI-H460 lung

O=c1[nH]nc(Cc2ccccc2)n1/N=C\CC/C=N\n1c(Cc2ccccc2)n[nH]c1=O
TGI (SW-620 colon): > 100 µM | TGI (TK-10 renal): > 100 µM | TGI (ACHN renal): > 100 µM | TGI (OVCAR-5 ovarian): > 100 µM | TGI (HCC-2998 colon): > 100 µM | TGI (HCT-116 colon): 48.7 µM | TGI (SK-OV-3 ovarian): > 100 µM | TGI (UO-31 renal): > 100 µM | TGI (RPMI-8226 leukemia): 80.9 µM | TGI (MDA-N): > 100 µM | TGI (786-0 renal): > 100 µM | TGI (NCI/ADR-RES ovarian): 41.5 µM | TGI (LOX IMVI melanoma): > 100 µM | TGI (NCI-H23 lung): 66.6 µM | TGI (SN12C renal): > 100 µM | TGI (SF-539 CNS): 66.3 µM | TGI (U251 CNS): > 100 µM | TGI (DU-145 prostate): > 100 µM | TGI (M14 melanoma): > 100 µM | TGI (BT-549 breast): > 100 µM | TGI (SR leukemia): > 100 µM | TGI (A498 renal): > 100 µM | TGI (HL-60(TB) leukemia): > 100 µM | TGI (MALME-3M melanoma): 77.7 µM | TGI (SNB-19 CNS): > 100 µM | TGI (UACC-257 melanoma): > 100 µM | TGI (K-562 leukemia): > 100 µM | TGI (HT29 colon): 83.3 µM | TGI (OVCAR-3 ovarian): > 100 µM | TGI (OVCAR-8 ovarian): 58.9 µM | TGI (T-47D breast): > 100 µM | TGI (COLO 205 colon): > 100 µM | TGI (MOLT-4 leukemia): > 100 µM | TGI (HCT-15 colon): 75 µM | TGI (A549 NSCLC): > 100 µM | TGI (SK-MEL-28 melanoma): > 100 µM | TGI (MDA-MB-231 breast): > 100 µM | TGI (CAKI-1 renal): > 100 µM | TGI (HOP-92 NSCLC): > 100 µM | TGI (PC-3 prostate): > 100 µM | TGI (NCI-H226 lung): 83.1 µM | TGI (EKVX NSCLC): > 100 µM | TGI (SK-MEL-2 melanoma): 90.3 µM | TGI (HOP-62 NSCLC): 88.4 µM | TGI (NCI-H522 lung): > 100 µM | TGI (IGROV1 ovarian): 40.7 µM | TGI (SK-MEL-5 melanoma): > 100 µM | TGI (KM12 colon): > 100 µM | TGI (SF-295 CNS): > 100 µM | TGI (MCF7 breast): > 100 µM | TGI (HS 578T breast): 53.1 µM | TGI (CCRF-CEM leukemia): > 100 µM | TGI (RXF 393 renal): 72.5 µM | TGI (SF-268 CNS): 77.7 µM | TGI (SNB-75 CNS): 58.7 µM | TGI (MDA-MB-435): > 100 µM | TGI (OVCAR-4 ovarian): > 100 µM | TGI (UACC-62 melanoma): 46.6 µM

COC(=O)CC1C(C)(C)C(=O)C2CC3=C4CC(=O)OC(c5ccoc5)C4(C)CCC3C1(C)C2=O (stereo unspecified)
TGI (SW-620 colon): > 100 µM | TGI (TK-10 renal): > 100 µM | TGI (ACHN renal): > 100 µM | TGI (OVCAR-5 ovarian): > 100 µM | TGI (HCC-2998 colon): > 100 µM | TGI (HCT-116 colon): > 100 µM | TGI (SK-OV-3 ovarian): > 100 µM | TGI (RPMI-8226 leukemia): > 100 µM | TGI (MDA-N): > 100 µM | TGI (786-0 renal): > 100 µM | TGI (NCI/ADR-RES ovarian): > 100 µM | TGI (LOX IMVI melanoma): > 100 µM | TGI (NCI-H23 lung): > 100 µM | TGI (NCI-H460 lung): > 100 µM | TGI (SN12C renal): > 100 µM | TGI (SF-539 CNS): > 100 µM | TGI (U251 CNS): > 100 µM | TGI (DU-145 prostate): > 100 µM | TGI (M14 melanoma): > 100 µM | TGI (BT-549 breast): > 100 µM | TGI (SR leukemia): > 100 µM | TGI (A498 renal): > 100 µM | TGI (HL-60(TB) leukemia): > 100 µM | TGI (MALME-3M melanoma): > 100 µM | TGI (SNB-19 CNS): > 100 µM | TGI (UACC-257 melanoma): > 100 µM | TGI (K-562 leukemia): > 100 µM | TGI (HT29 colon): > 100 µM | TGI (OVCAR-3 ovarian): > 100 µM | TGI (OVCAR-8 ovarian): > 100 µM | TGI (T-47D breast): > 100 µM | TGI (COLO 205 colon): > 100 µM | TGI (MOLT-4 leukemia): > 100 µM | TGI (HCT-15 colon): > 100 µM | TGI (A549 NSCLC): > 100 µM | TGI (SK-MEL-28 melanoma): > 100 µM | TGI (MDA-MB-231 breast): > 100 µM | TGI (CAKI-1 renal): > 100 µM | TGI (HOP-92 NSCLC): > 100 µM | TGI (PC-3 prostate): > 100 µM | TGI (NCI-H226 lung): > 100 µM | TGI (EKVX NSCLC): > 100 µM | TGI (SK-MEL-2 melanoma): > 100 µM | TGI (HOP-62 NSCLC): > 100 µM | TGI (NCI-H522 lung): > 100 µM | TGI (IGROV1 ovarian): > 100 µM | TGI (SK-MEL-5 melanoma): > 100 µM | TGI (KM12 colon): > 100 µM | TGI (SF-295 CNS): > 100 µM | TGI (MCF7 breast): > 100 µM | TGI (HS 578T breast): > 100 µM | TGI (CCRF-CEM leukemia): > 100 µM | TGI (RXF 393 renal): > 100 µM | TGI (SF-268 CNS): > 100 µM | TGI (SNB-75 CNS): > 100 µM | TGI (MDA-MB-435): > 100 µM | TGI (OVCAR-4 ovarian): > 100 µM | TGI (UACC-62 melanoma): > 100 µM
